What all share (assay): antibacterial activity by mycelial growth rate method
Format in all cases: cell-based

One assay deals with C. gloeosporioides. The conditions noted are these: Colletotrichum gloeosporioides; for inhibition at 25 µg/mL: 25 mg/L; for inhibition at 50 µg/mL: 50 mg/L; for inhibition at 100 µg/mL: 100 mg/L. The protocol: (§1) Five common strains of C. gloeosporioides, V. mali, F. oxysporum, B. cinerea and G. graminis were selected, and the antibacterial activity of the compounds was tested by a mycelial growth rate method (Ann. Appl. Biol., 2008, 152, 369). The above strains for test were provided by Shangdong Biopesticide Engineering Research Center. Firstly, a certain amount of potato dextrose agar (PDA) was weighed and placed in a wide neck flask, distilled water was added to the wide-necked flask, to prepare a culture medium, and the culture medium was placed in an autoclave for sterilization at 120° C. for half an hour. 1 mg of drugs to be tested were weighed and dissolved in 10 mL of acetone to prepare 100 mg/L of agents, a half of agents therein were taken and diluted with the acetone to 10 mL to prepare 50 mg/L of agents, and 25 mg/L, 12.5 mg/L and 6.25 mg/L of agents might be prepared in such way. 5 mL of agents therein were taken and poured into 50 mL of potato dextrose agar for uniform mixing, and then the mixtures were poured into 5 culture media sterilized at high temperature respectively. The five pathogens were inoculated with inoculation loops respectively after cooling, sealed with sealing films and transferred to a proper temperature for observation. When colonies in the control group without the agents reached […], the colonies in the experimental groups were measured by a cross intersection method according to the following formula: Inhibition rate=(colony diameter of the control group−colony diameter of the experimental groups)/colony diameter of the control group×[…]

For another assay, the system named is G. graminis. Particulars: Gaeumannomyces graminis; for inhibition at 25 µg/mL: 25 mg/L; for inhibition at 50 µg/mL: 50 mg/L; for inhibition at 100 µg/mL: 100 mg/L. The protocol:
as §1

The subject of the next assay is B. cinerea. Particulars: Botrytis cinerea; for inhibition at 25 µg/mL: 25 mg/L; for inhibition at 50 µg/mL: 50 mg/L; for inhibition at 100 µg/mL: 100 mg/L. The method, then:
as §1

The test system of the next assay is V. mali. Particulars: Cytospora mali; for inhibition at 25 µg/mL: 25 mg/L; for inhibition at 50 µg/mL: 50 mg/L; for inhibition at 100 µg/mL: 100 mg/L. The method, then: as §1
Another assay deals with F. oxysporum. The conditions noted are these: Fusarium oxysporum; for inhibition at 25 µg/mL: 25 mg/L; for inhibition at 50 µg/mL: 50 mg/L; for inhibition at 100 µg/mL: 100 mg/L. The protocol:
as §1

SMILES strings stand for the structures.

For `COc1cccc(CN2Cc3cc4ccccc4nc3CC3CCCN3c3ccccc32)c1` (stereo not drawn) [Compound 4], the inhibition at 25 µg/mL was 100% in the assay with C. gloeosporioides; 61.2% in the assay with G. graminis; ≤ 100% in the assay on B. cinerea; ≤ 100% in the assay on V. mali; 100% in the assay with F. oxysporum. Besides, the inhibition at 50 µg/mL in the assay with C. gloeosporioides was found to be 100%; with G. graminis, 66.5%; in the assay on B. cinerea, 100%; with V. mali, 100%; in the assay with F. oxysporum it was 100%. In addition, the inhibition at 100 µg/mL with C. gloeosporioides, in the assay with G. graminis, in the assay on B. cinerea, in the assay with V. mali and with F. oxysporum was 100% throughout.
Regarding `Cc1ccc(CN2Cc3cc4cc(C(F)(F)F)ccc4nc3CC3CCCN3c3ccccc32)cc1` (stereo not drawn) [Compound 6], the inhibition at 25 µg/mL in the assay on C. gloeosporioides was 74.6%; in the assay on G. graminis, 56.3%; in the assay on B. cinerea, ≤ 100%; with V. mali, ≤ 100%; with F. oxysporum, 86.5%. In addition, the inhibition at 50 µg/mL in the assay with C. gloeosporioides came to 82.1%; in the assay with G. graminis it was 100%; in the assay on B. cinerea, 100%; in the assay with V. mali, 100%; in the assay on F. oxysporum it was 100%. Besides, the inhibition at 100 µg/mL with C. gloeosporioides, in the assay with G. graminis, in the assay on B. cinerea, in the assay on V. mali and in the assay with F. oxysporum was 100% each time.
`Cc1ccc(CN2Cc3cc4ccccc4nc3CC3CCCN3c3ccccc32)cc1` (stereo not drawn) [Compound 3]: the inhibition at 25 µg/mL in the assay on C. gloeosporioides was 100%; in the assay with G. graminis, 58.2%; in the assay on B. cinerea, ≤ 100%; with V. mali it was ≤ 100%; in the assay on F. oxysporum, 100%. For the same molecule, the inhibition at 50 µg/mL in the assay with C. gloeosporioides stood at 100%; with G. graminis it was 62.1%; with B. cinerea, 100%; in the assay on V. mali, 100%; in the assay on F. oxysporum it was 100%. In addition, the inhibition at 100 µg/mL in the assay with C. gloeosporioides, in the assay on G. graminis, in the assay with B. cinerea, with V. mali and with F. oxysporum was 100% in each case.
`Fc1ccc(CN2Cc3cc4ccccc4nc3CC3CCCN3c3ccccc32)cc1` (stereo not drawn) [Compound 2]: the inhibition at 25 µg/mL with C. gloeosporioides is 92.4%; in the assay on G. graminis it was 100%; with B. cinerea it was ≤ 100%; with V. mali, ≤ 100%; in the assay with F. oxysporum, 100%. The inhibition at 50 µg/mL with C. gloeosporioides, in the assay on G. graminis, in the assay on B. cinerea, with V. mali and in the assay with F. oxysporum was 100% in each case. In addition, the inhibition at 100 µg/mL with C. gloeosporioides, in the assay with G. graminis, with B. cinerea, in the assay with V. mali and with F. oxysporum was 100% throughout.
As for `Cc1ccc(CN2Cc3cc4ccccc4nc3CC3CCCN3c3cc(Cl)ccc32)cc1` (stereo not drawn) [Compound 5], the inhibition at 25 µg/mL in the assay with C. gloeosporioides was 88.1%; with G. graminis, 35.9%; in the assay on B. cinerea it was ≤ 100%; in the assay with V. mali, ≤ 100%; in the assay on F. oxysporum, 100%. Moreover, the inhibition at 50 µg/mL with C. gloeosporioides turned out to be 100%; in the assay with G. graminis, 51.9%; with B. cinerea, 100%; with V. mali, 100%; in the assay with F. oxysporum it was 100%. The inhibition at 100 µg/mL in the assay on C. gloeosporioides was 100%; in the assay with G. graminis, 75.1%; in the assay on B. cinerea it was 100%; in the assay on V. mali, 100%; in the assay with F. oxysporum it was 100%.
As for `c1ccc(CN2Cc3cc4ccccc4nc3CC3CCCN3c3ccccc32)cc1` (stereo not drawn) [Compound 1], the inhibition at 25 µg/mL is 100% in the assay on C. gloeosporioides; 36.9% in the assay on G. graminis; ≤ 100% in the assay on B. cinerea; ≤ 100% in the assay with V. mali; 49.3% in the assay on F. oxysporum. In addition, the inhibition at 50 µg/mL in the assay on C. gloeosporioides turned out to be 100%; in the assay on G. graminis, 54.1%; with B. cinerea it was 100%; in the assay with V. mali it was 100%; in the assay with F. oxysporum it was 100%. The inhibition at 100 µg/mL came to 100% with C. gloeosporioides; 68.9% with G. graminis; 100% in the assay on B. cinerea; 100% with V. mali; 100% in the assay on F. oxysporum.

The values are drawn from patent US11839216B1, “Quinoline-2,3-fused nine-membered ring scaffold compound, and preparation method and application thereof as effective component in plant fungicide” (QINGDAO AGRICULTURAL UNIVERSITY, priority 2022, dated 2023).
